Positions of bridges follow the written chain, without caps; N, C: chain ends. Chains are numbered I, II in the order given.
Key:
[1] = target: T1, human ASGPR-1 (Homo sapiens, UniProt P07306); test: Solid-phase binding assay with recombinant receptors; details: biotinylated tetravalent peptide
T1 construct: The extracellular domains of receptors, which were fused with the Fc domain of immunoglobulin IgG; purchased R&D Systems
T1 sequence (P07306 62-291 limits assumed): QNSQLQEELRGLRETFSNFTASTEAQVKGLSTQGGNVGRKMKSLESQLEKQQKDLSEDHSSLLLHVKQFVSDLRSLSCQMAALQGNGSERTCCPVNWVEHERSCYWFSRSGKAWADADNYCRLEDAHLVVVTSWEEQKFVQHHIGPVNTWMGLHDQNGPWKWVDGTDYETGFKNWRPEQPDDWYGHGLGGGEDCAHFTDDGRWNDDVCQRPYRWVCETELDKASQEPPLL
Description: (§1) Binding Assays Solid-phase binding assays were performed with streptavidin-, protein A/G-, or Nickel-coated microtiter plates (Pierce). His-tagged or Fc-fusion recombinant receptors (R&D Systems, Minneapolis, Minn.) were reconstituted in PBS. Sufficient receptors were added to wells to saturate the coating. His-tagged receptors were added to each well at a 5-fold excess over the stated capacity of the Ni coating to minimize non-specific binding of the peptide. Wells were washed three times with binding buffer (25 mM Tris HCl, pH 7.4, 150 mM NaCl, 0.05% Tween-20) to remove unbound receptor and 50 μL of 2 μM biotinylated peptide in binding buffer were added and allowed to incubate for 1 h. The wells were washed four times with binding buffer and then incubated with 50 μL of 1 μg/mL streptavidin conjugated with peroxidase (Sigma-Aldrich) for 1 h. The wells were washed five times with binding buffer and 50 μL of peroxidase substrate (1-Step™ Ultra TMB, Pierce) were added. After several minutes to allow color development, the reaction was stopped with 50 μL 1 M H3PO4 and absorbance was measured at 450 nm. Bound streptavidin was quantitated by the specific activity of peroxidase (absorbance/ng protein conjugate/min) under the conditions of the assay.
(§2) Solid-phase binding assays were performed with recombinant human receptors. Three variations of the binding assay were used in this study, all of which allowed the arms of the tetravalent peptide to have full flexibility. (i) Biotinylated peptide was bound in microtiter wells coated with streptavidin and incubated with recombinant human receptors. After extensive washing, the bound receptor was measured by peroxidase conjugated to a receptor-specific antibody. (ii) The extracellular domains of receptors, which were fused with the Fc domain of immunoglobulin IgG, were bound in wells coated with protein A/G. Biotinylated peptide was incubated with the receptors and, after extensive washing, bound peptide was measured with streptavidin conjugated with peroxidase. Or (iii), recombinant receptors with a poly-His tag were bound to Nickel-coated wells and incubated with biotinylated peptide. svL4 and sv6D contain His residues (FIGS. 1A, 1C) and can bind to the Ni coating, which was minimized by adding sufficient poly-His-tagged receptor to saturate the Ni coating.

[2] = target: T2, recombinant human CLEC10A (Homo sapiens, UniProt Q8IUN9); test: as above; details: for Binding to CLEC10A: biotinylated tetravalent peptide
T2 construct: The extracellular domains of receptors, which were fused with the Fc domain of immunoglobulin IgG; purchased R&D Systems
T2 sequence (Q8IUN9 61-316 limits assumed): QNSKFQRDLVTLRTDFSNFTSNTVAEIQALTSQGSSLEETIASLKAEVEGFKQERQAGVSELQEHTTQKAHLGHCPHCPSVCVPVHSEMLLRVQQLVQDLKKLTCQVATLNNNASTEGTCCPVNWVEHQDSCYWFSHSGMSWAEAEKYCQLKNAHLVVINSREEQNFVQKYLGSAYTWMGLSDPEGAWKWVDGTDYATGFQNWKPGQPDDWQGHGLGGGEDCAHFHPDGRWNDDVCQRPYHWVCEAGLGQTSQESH
Description: as §1, §2

[3] = tested on: CLEC4F; test: Solid-phase binding assay, survey of other receptors; design: species or system human
Description: as §1, with “The wells were washed five times with binding buffer and 50 μL of peroxidase substrate (1-Step™ Ultra TMB, Pierce) were added.” left out
Solid-phase binding assays were performed with recombinant human receptors. […] After extensive washing, the bound receptor was measured by peroxidase conjugated to a receptor-specific antibody. […]

[4] = tested on: peritoneal immune cells; test: Expansion of peritoneal cells after subcutaneous injection, flow cytometry; format: in vivo, C57BL/6 mice; details: for Change in mature, active peritoneal immune cell populations: 1 nmol/g s.c. on days 0, 2, 4, cells 24 h after each injection
Description: FIGS. 7A-7D. Expansion of peritoneal cells in C57BL/6 mice. Mice were injected subcutaneously at a dose of 1 nmol/g body weight of svL4, sv6D or svC1. Cells in each population recovered in a peritoneal lavage are expressed as cell counts (in thousands). Cells from three mice in each treatment group were pooled for analysis. The number of cells in each population was normalized to the average recovery of total cells from all groups. For each cell type, the left-hand, middle and right-hand set of bars represent samples from mice treated with svL4, sv6D or svC1, respectively. Mice were injected on days 0, 2 and 4, and cells were collected 24 h after each injection. Day 1, open bar; day 3, grey bar; day 5, black bar. Populations that express activation markers are indicated by an asterisk.
Flow Cytometry Healthy C57BL/6 male mice, 10 weeks old, were injected subcutaneously with peptides on alternate days. Peritoneal cells were isolated from mice 24 h after dosing by injecting ice cold PBS (containing 3% FBS) into the peritoneal cavity, gently massaging the abdomen, and then collecting the fluid, which was transferred into K2EDTA-treated tubes for evaluation of specific biomarkers. Cells from three mice in each group were pooled, counted and divided among FACS tubes (1×10^6 cells per tube). Cells were washed once in PBS containing 3% FBS, then stained with 0.25 to 1 μg of fluorescently conjugated antibody per 10^6 cells in 100 μL of buffer as recommended by the manufacturer (Table 1).
Cells were incubated with the antibodies for 30 min at 4° C. in the dark. Following staining, the cells were washed two times with PBS/3% FBS and immediately analyzed with a MACSQuant flow cytometer (Miltenyi Biotech, Inc., San Diego, Calif.). Compensation was performed using single stain tubes for each color present in the analysis as well as an unstained control sample. Collection of flow cytometric data and analysis with FlowJo software, version 10.0.6 (FlowJo, LLC, Ashland, Oreg.) were performed by Biomodels LLC (Watertown, Mass.).
To examine whether increases occurred in mature immune cells, peritoneal cells from Balb/c and C57BL/6 mice were analyzed by flow cytometry after cells were stained with the markers listed in Table 1. […] To explore this observation more extensively, svL4 or sv6D was injected into C57BL/6 mice on day 0, 2 or 4. Peritoneal cells were examined by flow cytometry 24 h after each injection. Shown in FIGS. 7A-7D are results expressed as cell counts for F4/80 CD11b CD86 (mature, active macrophages); CD11c (DCs); CD11c CD86 (activated DCs); CD4 CD69 (activated T cells); CD8 CD69 (activated cytotoxic T cells); NK1.1 CD3^+ CD69 (activated NKT cells); NK1.1 CD3^− CD69 (activated NK cells); CD19 (B cells); and CD19 CD73 CD80 CD273 (memory B cells). The numbers of these mature, activated cells continued to increase with each injection.

Row | Substance | Binding to ASGPR-1 [1] | Binding to CLEC10A [2] | Ca2+ dependence of binding ([2]; chelation of Ca2+ with low concentrations of EGTA, CLEC10A and ASGPR-1) | Binding to CLEC4F [3] | Change in mature, active peritoneal immune cell populations [4] | Overall peritoneal cell responses compared with svL4 ([4]; DCs, T cells, NKT cells, days 0, 2, 4) | Injection after which a significant increase in peritoneal cells occurred ([4]; 1 nmol/g s.c.) | Response of CD19+ B cells ([4]; compared with sv6D)
1 | I: H-NQHTPRGGGSKK-NH2 / II: H-NQHTPRGGGSK / III: H-NQHTPRGGGS / IV: H-NQHTPRGGGS (amide I:11-IV:C, I:12-II:C, II:11-III:C) [sv6D] | bound as strongly as the full-length sequence | bound as strongly as the full-length sequence | requires Ca^2+ | bound | several-fold increases | greater than those to svL4 | – | –
2 | I: H-VQATQSNQHTPRGGGSKK-NH2 / II: H-VQATQSNQHTPRGGGSK / III: H-VQATQSNQHTPRGGGS / IV: H-VQATQSNQHTPRGGGS (amide I:17-IV:C, I:18-II:C, II:17-III:C) [svL4] | bound | bound | – | bound | several-fold increases | – | only after the second injection | responded more strongly

Source: patent US11376307B2, “Compositions and methods of treating cancer with glycomimetic peptides” (SUSAVION BIOSCIENCES, INC., priority 2018, dated 2022)
